Where “and” joins values, the source holds several entries; their conditions need not be identical. Equal entries are not always repeated.
Legend:
Assay type in all cases: biochemical
hLPCAT1 [1] = target: T1, hLPCAT1 (Homo sapiens, UniProt Q8NF37); assay: acyltransferase activity assay, DPPC product by LC-MS/MS; conditions: 0, 0.2, 0.6, 2, 6 and 20 μM of each compound in triplicate; LC-MS/MS; read-out: IC50, product DPPC, enzyme hLPCAT1
T1 construct: expressed in transfected cells
T1 sequence (Q8NF37 1-534): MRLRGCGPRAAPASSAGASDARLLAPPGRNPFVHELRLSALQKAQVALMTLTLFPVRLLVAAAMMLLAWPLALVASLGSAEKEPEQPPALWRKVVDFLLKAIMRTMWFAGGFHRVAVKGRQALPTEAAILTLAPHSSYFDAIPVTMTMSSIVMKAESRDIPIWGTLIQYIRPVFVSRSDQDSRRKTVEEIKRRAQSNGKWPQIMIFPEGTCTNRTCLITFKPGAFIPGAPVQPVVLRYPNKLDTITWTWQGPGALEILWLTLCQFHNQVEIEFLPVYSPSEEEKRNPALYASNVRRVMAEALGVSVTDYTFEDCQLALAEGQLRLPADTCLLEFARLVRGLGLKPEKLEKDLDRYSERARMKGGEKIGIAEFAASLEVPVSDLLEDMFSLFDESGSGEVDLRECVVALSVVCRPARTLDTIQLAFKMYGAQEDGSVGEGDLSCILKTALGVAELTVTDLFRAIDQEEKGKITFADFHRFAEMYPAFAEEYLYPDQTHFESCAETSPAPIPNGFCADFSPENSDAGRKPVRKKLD
Experimental: (§1) Microsomal protein fractions (0.5 μg) supplemented with the indicated compound concentrations were added to the reaction mixture containing 100 mM Tris-HCl (pH 7.4), 1 μM CaCl2, 0.015% Tween-20, and two substrates. For acetyltransferase activity, the substrates were 1 mM acetyl-CoA and 5 μM d4-lyso-PAF; for the acyltransferase activity of LPCAT1 or LPCAT2, the substrates were, respectively, palmitoyl-CoA and d31-16:0 LPC or arachidonoyl-CoA and d4-lyso-PAF (all 5 μM). Each lysophospholipid contained fatty acid at the sn-1 position. After incubation at 37°C for 5 min, the reactions were stopped by adding 300 μl methanol containing 17:0 LPC or 14:0/14:0 PC as an internal standard. Deuterium-labeled products were analyzed by LC-MS/MS (Waters, Milford, MA and Thermo Scientific, Waltham, MA). […]
(§2) Steps 2 to 5 screening: 96-well plate assay
(§3) Acetyltransferase and acyltransferase assays were developed in 96-well plates. The microsomal hLPCAT2, obtained from mcPAF-stimulated CHO-S-PAFR cells was used in steps 1, 2, and 5. The microsomal hLPCAT1 obtained from unstimulated CHO-S cells was used in steps 3 to 5. Each well of the 96-well plates contained 30 µl of 15 µg/ml protein, 600 nl of 2 mM compound, 30 µl buffer C, and two substrates (Fig. 1B and C).
(§4) Substrate concentrations were as follows: acetyl-CoA, 250 or 1000 µM acetyl-CoA; […]
(§5) arachidonoyl-CoA, 5 µM; palmitoyl-CoA, 5 µM; d4-lyso-PAF, 5 µM; and d31-LPC, 5 µM.
(§6) For step 5, compound concentrations were 0, 0.167, 0.67, 2, 6.7, and 20 µM. The deuterium-labeled products were measured by LC-MS/MS. Percentage inhibition (steps 2 to 4) or IC50 (step 5) was used as the hit criterion. […]
(§7) Step 7 screening: species-specific differences
(§8) To evaluate the effects on the activity of mouse or human LPCAT1 and LPCAT2, each microsomal fraction was obtained using CHO-S-PAFR cells with or without mcPAF (200 nM) stimulation for 5 min. Acetyltransferase and acyltransferase assays were performed with 20 µM of each compound. Percentage inhibition was calculated in each

hLPCAT2 [2] = target: T2, hLPCAT2 (Homo sapiens, UniProt Q7L5N7); assay: lyso-PAFAT (acetyltransferase) activity assay, PAF product by LC-MS/MS; conditions: 0, 0.2, 0.6, 2, 6 and 20 μM of each compound in triplicate; LC-MS/MS; read-out: IC50, product PAF, enzyme hLPCAT2
T2 construct: expressed in transfected cells; host or cells: CHO-S-PAFR cells (microsomal fraction), with or without mcPAF stimulation
T2 sequence (Q7L5N7 1-544): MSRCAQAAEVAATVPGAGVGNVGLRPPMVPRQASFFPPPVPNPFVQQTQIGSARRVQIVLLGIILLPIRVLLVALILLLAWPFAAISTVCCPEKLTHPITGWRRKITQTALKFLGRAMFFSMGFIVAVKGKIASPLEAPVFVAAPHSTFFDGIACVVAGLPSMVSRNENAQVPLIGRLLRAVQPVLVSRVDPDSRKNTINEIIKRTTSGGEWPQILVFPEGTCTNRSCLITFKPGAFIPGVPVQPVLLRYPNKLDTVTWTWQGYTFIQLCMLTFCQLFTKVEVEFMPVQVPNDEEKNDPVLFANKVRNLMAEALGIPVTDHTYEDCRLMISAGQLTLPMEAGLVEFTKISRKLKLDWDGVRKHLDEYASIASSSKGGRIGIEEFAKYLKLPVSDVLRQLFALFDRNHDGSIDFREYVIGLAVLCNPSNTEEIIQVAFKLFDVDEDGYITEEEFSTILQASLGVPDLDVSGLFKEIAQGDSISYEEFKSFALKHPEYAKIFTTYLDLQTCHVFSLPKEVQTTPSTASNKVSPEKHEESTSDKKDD
Experimental: as §1, §2, §3, §4, §5
For step 5, compound concentrations were 0, 0.167, 0.67, 2, 6.7, and 20 µM. The deuterium-labeled products were measured by LC-MS/MS. Percentage inhibition (steps 2 to 4) or IC50 (step 5) was used as the hit criterion.
Step 6 screening: BSA assay
The acetyltransferase assay was performed with 20 µM of each compound and microsomal hLPCAT2 from step 1. The assay mixture contained 0.4% BSA and two substrates for lyso-PAFAT activity: 1 mM acetyl-CoA and 5 µM d4-lyso-PAF. Percentage inhibition values were determined.
as §7, §8

hLPCAT2 [3] = target: T2, hLPCAT2; assay: acyltransferase activity assay, 16:0/20:4 alkyl-PC product by LC-MS/MS; conditions: 0, 0.2, 0.6, 2, 6 and 20 μM of each compound in triplicate; LC-MS/MS; read-out: IC50, product Alkyl-PC (16:0/20:4 alkyl-PC), enzyme hLPCAT2
Experimental: as §1, §2, §3, §4, §5, §6, §7, §8

hLPCAT1 [4] = target: T1, hLPCAT1; assay: lyso-PAFAT (acetyltransferase) activity assay, PAF product by LC-MS/MS; conditions: 0, 0.2, 0.6, 2, 6 and 20 μM of each compound in triplicate; LC-MS/MS; read-out: IC50, product PAF, enzyme hLPCAT1
Experimental: as §1, §2, §3, §4, §5, §6, §7, §8

SMILES	IC50 (hLPCAT1 [1]) [µM]	IC50 (hLPCAT2 [2])	IC50 (hLPCAT2 [3]) [µM]	IC50 (hLPCAT1 [4]) [µM]
CCN1C(=O)C=CC1=O [N-ethylmaleimide (NEM), N-ethylmaleimide, reference compound]	1850	106 µM	69.6	1720
COc1ccc(Cl)cc1N1C(=O)C(Cl)=C(Cl)C1=O [TSI-03]	> 20	> 10 µM and 12.1 µM	17.1	9.38
COc1ccc(Cl)cc1N1C(=O)C(Cl)=C(Nc2ccccc2O)C1=O [TSI-04]	> 20	> 10 µM and 16.3 µM	> 20	7.79

Other lines, results leading:

IC50 (hLPCAT1 [1]) [µM]	IC50 (hLPCAT2 [2])	IC50 (hLPCAT2 [3]) [µM]	IC50 (hLPCAT1 [4]) [µM]	SMILES
> 20	3.5 µM	11.6	10.1	COC(=O)c1ccc(N2C(=O)C(Cl)=C(Cl)C2=O)cc1 [TSI-09]
> 20	> 20 µM	> 20	> 20	CC(C)OC(=O)c1ccc(N2C(=O)C(Cl)=C(N3CCOCC3)C2=O)cc1 [TSI-06]
> 20	> 20 µM	> 20	> 20	COC(=O)c1ccc(N2C(=O)C(Cl)=C(Nc3ccc(S(N)(=O)=O)cc3)C2=O)cc1 [TSI-08]
> 20	> 20 µM	7.58	> 20	COc1ccc(N2C(=O)C(Cl)=C(Oc3ccccc3OC)C2=O)cc1 [TSI-05]
